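Results reflect a 48-hour exposure of cells in 96-well plates to compound at five concentrations. The concentration for 50% growth inhibition is given as GI50. Definition used: TGI = concentration required for complete inhibition of growth.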
Key:
Experiment in all cases: NCI-60 cell line screen, 48 h
SK-MEL-2 melanoma = tested on: SK-MEL-2 melanoma
KM12 colon = tested on: KM12 colon
OVCAR-8 ovarian = tested on: OVCAR-8 ovarian
786-0 renal = tested on: 786-0 renal
OVCAR-4 ovarian = tested on: OVCAR-4 ovarian
SN12C renal = tested on: SN12C renal
SNB-75 CNS = tested on: SNB-75 CNS
HOP-92 NSCLC = tested on: HOP-92 NSCLC
SF-295 CNS = tested on: SF-295 CNS
SW-620 colon = tested on: SW-620 colon
NCI-H460 lung = tested on: NCI-H460 lung
SK-OV-3 ovarian = tested on: SK-OV-3 ovarian
SK-MEL-5 melanoma = tested on: SK-MEL-5 melanoma
MOLT-4 leukemia = tested on: MOLT-4 leukemia
HCT-116 colon = tested on: HCT-116 colon
MCF7 breast = tested on: MCF7 breast
UO-31 renal = tested on: UO-31 renal
MDA-MB-231 breast = tested on: MDA-MB-231 breast
DU-145 prostate = tested on: DU-145 prostate
ACHN renal = tested on: ACHN renal
HCC-2998 colon = tested on: HCC-2998 colon
OVCAR-3 ovarian = tested on: OVCAR-3 ovarian
K-562 leukemia = tested on: K-562 leukemia
RXF 393 renal = tested on: RXF 393 renal
MALME-3M melanoma = tested on: MALME-3M melanoma
MDA-MB-435 = tested on: MDA-MB-435
HCT-15 colon = tested on: HCT-15 colon
UACC-257 melanoma = tested on: UACC-257 melanoma
A549 NSCLC = tested on: A549 NSCLC
HT29 colon = tested on: HT29 colon
IGROV1 ovarian = tested on: IGROV1 ovarian
OVCAR-5 ovarian = tested on: OVCAR-5 ovarian
SF-539 CNS = tested on: SF-539 CNS
RPMI-8226 leukemia = tested on: RPMI-8226 leukemia
HOP-62 NSCLC = tested on: HOP-62 NSCLC
CCRF-CEM leukemia = tested on: CCRF-CEM leukemia
T-47D breast = tested on: T-47D breast
HL-60(TB) leukemia = tested on: HL-60(TB) leukemia
A498 renal = tested on: A498 renal
SNB-19 CNS = tested on: SNB-19 CNS
SK-MEL-28 melanoma = tested on: SK-MEL-28 melanoma
CAKI-1 renal = tested on: CAKI-1 renal
BT-549 breast = tested on: BT-549 breast
NCI-H522 lung = tested on: NCI-H522 lung
COLO 205 colon = tested on: COLO 205 colon
EKVX NSCLC = tested on: EKVX NSCLC
LOX IMVI melanoma = tested on: LOX IMVI melanoma
TK-10 renal = tested on: TK-10 renal
NCI/ADR-RES ovarian = tested on: NCI/ADR-RES ovarian
PC-3 prostate = tested on: PC-3 prostate
HS 578T breast = tested on: HS 578T breast
NCI-H226 lung = tested on: NCI-H226 lung
NCI-H23 lung = tested on: NCI-H23 lung
U251 CNS = tested on: U251 CNS
M14 melanoma = tested on: M14 melanoma
SR leukemia = tested on: SR leukemia
SF-268 CNS = tested on: SF-268 CNS
UACC-62 melanoma = tested on: UACC-62 melanoma

Cc1c2cnccc2c(C)c2c1c1cc(CO)ccc1n2C
GI50 (SK-MEL-2 melanoma): 0.455 µM
TGI (SK-MEL-2 melanoma): 2.01 µM
GI50 (KM12 colon): 0.303 µM
TGI (KM12 colon): 1.82 µM
GI50 (OVCAR-8 ovarian): 0.178 µM
TGI (OVCAR-8 ovarian): 2.45 µM
GI50 (786-0 renal): 0.302 µM
TGI (786-0 renal): 2.66 µM
GI50 (OVCAR-4 ovarian): 0.299 µM
TGI (OVCAR-4 ovarian): 1.2 µM
GI50 (SN12C renal): 0.187 µM
TGI (SN12C renal): 1.65 µM
GI50 (SNB-75 CNS): 0.434 µM
TGI (SNB-75 CNS): 1.7 µM
GI50 (HOP-92 NSCLC): 0.382 µM
TGI (HOP-92 NSCLC): 2.63 µM
GI50 (SF-295 CNS): 0.316 µM
TGI (SF-295 CNS): 1.66 µM
GI50 (SW-620 colon): 0.116 µM
TGI (SW-620 colon): 1.39 µM
GI50 (NCI-H460 lung): 0.149 µM
TGI (NCI-H460 lung): 0.571 µM
GI50 (SK-OV-3 ovarian): 0.324 µM
TGI (SK-OV-3 ovarian): 1.35 µM
GI50 (SK-MEL-5 melanoma): 0.425 µM
TGI (SK-MEL-5 melanoma): 1.58 µM
GI50 (MOLT-4 leukemia): 0.286 µM
TGI (MOLT-4 leukemia): 2.38 µM
GI50 (HCT-116 colon): 0.0454 µM
TGI (HCT-116 colon): 0.651 µM
GI50 (MCF7 breast): 0.203 µM
TGI (MCF7 breast): 1.37 µM
GI50 (UO-31 renal): 0.255 µM
TGI (UO-31 renal): 1.91 µM
GI50 (MDA-MB-231 breast): 0.348 µM
TGI (MDA-MB-231 breast): 1.79 µM
GI50 (DU-145 prostate): 0.288 µM
TGI (DU-145 prostate): 1.53 µM
GI50 (ACHN renal): 0.0665 µM
TGI (ACHN renal): 1.16 µM
GI50 (HCC-2998 colon): 0.465 µM
TGI (HCC-2998 colon): 1.93 µM
GI50 (OVCAR-3 ovarian): 0.295 µM
TGI (OVCAR-3 ovarian): 1.42 µM
GI50 (K-562 leukemia): 0.264 µM
TGI (K-562 leukemia): 1.68 µM
GI50 (RXF 393 renal): 0.209 µM
TGI (RXF 393 renal): 1.04 µM
GI50 (MALME-3M melanoma): 0.294 µM
TGI (MALME-3M melanoma): 1.18 µM
GI50 (MDA-MB-435): 0.349 µM
TGI (MDA-MB-435): 1.39 µM
GI50 (HCT-15 colon): 0.217 µM
TGI (HCT-15 colon): 1.31 µM
GI50 (UACC-257 melanoma): 0.292 µM
TGI (UACC-257 melanoma): 1.68 µM
GI50 (A549 NSCLC): 0.33 µM
TGI (A549 NSCLC): 2.07 µM
GI50 (HT29 colon): 0.257 µM
TGI (HT29 colon): 2.73 µM
GI50 (IGROV1 ovarian): 0.13 µM
TGI (IGROV1 ovarian): 1.22 µM
GI50 (OVCAR-5 ovarian): 0.244 µM
TGI (OVCAR-5 ovarian): 1.18 µM
GI50 (SF-539 CNS): 0.343 µM
TGI (SF-539 CNS): 1.54 µM
GI50 (RPMI-8226 leukemia): 0.26 µM
TGI (RPMI-8226 leukemia): 1.38 µM
GI50 (HOP-62 NSCLC): 0.211 µM
TGI (HOP-62 NSCLC): 2.33 µM
GI50 (CCRF-CEM leukemia): 0.328 µM
TGI (CCRF-CEM leukemia): 2.61 µM
GI50 (T-47D breast): 0.275 µM
TGI (T-47D breast): 3.14 µM
GI50 (HL-60(TB) leukemia): 0.408 µM
TGI (HL-60(TB) leukemia): 2.1 µM
GI50 (A498 renal): 0.0305 µM
TGI (A498 renal): 0.169 µM
GI50 (SNB-19 CNS): 0.299 µM
TGI (SNB-19 CNS): 2.37 µM
GI50 (SK-MEL-28 melanoma): 0.384 µM
TGI (SK-MEL-28 melanoma): 1.56 µM
GI50 (CAKI-1 renal): 0.163 µM
TGI (CAKI-1 renal): 1.08 µM
GI50 (BT-549 breast): 0.927 µM
TGI (BT-549 breast): 2.28 µM
GI50 (NCI-H522 lung): 0.35 µM
TGI (NCI-H522 lung): 1.91 µM
GI50 (COLO 205 colon): 0.258 µM
TGI (COLO 205 colon): 1.26 µM
GI50 (EKVX NSCLC): 0.325 µM
TGI (EKVX NSCLC): 1.29 µM
GI50 (LOX IMVI melanoma): 0.255 µM
TGI (LOX IMVI melanoma): 1.21 µM
GI50 (TK-10 renal): 0.553 µM
TGI (TK-10 renal): 4.15 µM
GI50 (NCI/ADR-RES ovarian): 0.187 µM
TGI (NCI/ADR-RES ovarian): 1.93 µM
GI50 (PC-3 prostate): 0.367 µM
TGI (PC-3 prostate): 2.14 µM
GI50 (HS 578T breast): 0.521 µM
TGI (HS 578T breast): 3.13 µM
GI50 (NCI-H226 lung): 0.109 µM
TGI (NCI-H226 lung): 0.57 µM
GI50 (NCI-H23 lung): 0.273 µM
TGI (NCI-H23 lung): 1.34 µM
GI50 (U251 CNS): 0.298 µM
TGI (U251 CNS): 1.63 µM
GI50 (M14 melanoma): 0.298 µM
TGI (M14 melanoma): 1.22 µM
GI50 (SR leukemia): 0.0752 µM
GI50 (SF-268 CNS): 0.268 µM
TGI (SF-268 CNS): 1.69 µM
GI50 (UACC-62 melanoma): 0.232 µM
TGI (UACC-62 melanoma): 1.03 µM

CC(=O)OCC1OC(n2c(-c3cccs3)c3c(c(C#N)c2=S)-c2ccccc2CC3)C(OC(C)=O)C(OC(C)=O)C1OC(C)=O (stereo not drawn)
TGI (SK-MEL-2 melanoma): 31.5 µM
TGI (KM12 colon): > 50.2 µM
TGI (OVCAR-8 ovarian): > 46.6 µM
TGI (786-0 renal): 58.5 µM
TGI (OVCAR-4 ovarian): > 95.7 µM
TGI (SN12C renal): > 100 µM
TGI (SNB-75 CNS): 26.7 µM
TGI (HOP-92 NSCLC): 29.9 µM
TGI (SF-295 CNS): > 55.8 µM
TGI (SW-620 colon): > 63.4 µM
TGI (NCI-H460 lung): > 45.8 µM
TGI (SK-OV-3 ovarian): > 100 µM
TGI (SK-MEL-5 melanoma): 23 µM
TGI (MOLT-4 leukemia): > 37.7 µM
TGI (HCT-116 colon): > 50.4 µM
TGI (MCF7 breast): 49.2 µM
TGI (UO-31 renal): 20.6 µM
TGI (MDA-MB-231 breast): 87.9 µM
TGI (DU-145 prostate): > 100 µM
TGI (ACHN renal): > 64 µM
TGI (HCC-2998 colon): 33.5 µM
TGI (OVCAR-3 ovarian): 43.1 µM
TGI (K-562 leukemia): > 100 µM
TGI (RXF 393 renal): 29.3 µM
TGI (MALME-3M melanoma): > 51.8 µM
TGI (MDA-MB-435): 9.09 µM
TGI (HCT-15 colon): > 56.8 µM
TGI (UACC-257 melanoma): > 55.4 µM
TGI (A549 NSCLC): > 87.1 µM
TGI (HT29 colon): 27.2 µM
TGI (IGROV1 ovarian): > 75.1 µM
TGI (OVCAR-5 ovarian): > 100 µM
TGI (SF-539 CNS): > 49.3 µM
TGI (RPMI-8226 leukemia): 17 µM
TGI (HOP-62 NSCLC): > 65.4 µM
TGI (CCRF-CEM leukemia): > 83.6 µM
TGI (T-47D breast): 42.8 µM
TGI (HL-60(TB) leukemia): > 28.1 µM
TGI (A498 renal): 40.9 µM
TGI (SNB-19 CNS): > 100 µM
TGI (SK-MEL-28 melanoma): > 59.2 µM
TGI (CAKI-1 renal): 64.7 µM
TGI (BT-549 breast): > 55.6 µM
TGI (NCI-H522 lung): 34 µM
TGI (COLO 205 colon): 32.9 µM
TGI (EKVX NSCLC): 70.9 µM
TGI (LOX IMVI melanoma): 22.5 µM
TGI (TK-10 renal): > 30.2 µM
TGI (NCI/ADR-RES ovarian): > 70.8 µM
TGI (PC-3 prostate): > 65.3 µM
TGI (HS 578T breast): 70.3 µM
TGI (NCI-H226 lung): > 56.7 µM
TGI (NCI-H23 lung): > 56.6 µM
TGI (U251 CNS): > 53.8 µM
TGI (M14 melanoma): > 50.8 µM
TGI (SR leukemia): > 29.8 µM
TGI (SF-268 CNS): > 64.4 µM
TGI (UACC-62 melanoma): 43.1 µM

From PubChem BioAssay (NCI)
